Data reported in patent publication US20090281054A1, “COMPOSITIONS AND METHODS COMPRISING CAPURAMYCIN ANALOGUES” (priority 2008, published 2009).
Converted amounts (≈) assume the structure as drawn. Like-named read-outs stand apart in the source and are kept apart here.

What was measured:
MTB-H37Rv = test: Post-antibiotic effect (PAE); type: cell-based, Mycobacterium tuberculosis
Protocol: PAE of SQ641. PAE of SQ641 was determined as described (Chan et al. Antimicrob. Agents Chemother., 2004, 48(1), 340-343). At the end of incubation, suspensions were diluted 1/25, and 0.1 ml was injected into each of triplicate BACTEC vials: drug dilution was 1000-fold in the BACTEC vials. Drug carryover controls (to ascertain absence of any carryover drug) consisting of the same MTB suspension as in the test and similar drug dilutions were mixed immediately, diluted 1/25, and 0.1 ml was injected into BACTEC vials. BACTEC vials were incubated at 37° C. and read in a BACTEC TB-460 reader every 24 hr until the cumulative GI in the control reached 999. PAE was calculated from the formula PAE=T−C, where T is the time required for the drug-exposed organisms to reach a cumulative GI of 100 and C is the time required for the controls to reach a cumulative GI of 100.
PAE determines the time required for the organisms to recover following exposure to an antimicrobial agent for a short duration. PAE activities of both SQ641 and INH, each at 4 μg/ml, were investigated with MTB-H37Rv. Following 2 hr of exposure to drugs, the PAE of INH was 17 hr as compared to 55 hr for SQ641. The PAE of SQ641 was over 3 times that of INH.

MTB in J774A.1 cells = test: Intracellular activity of SQ641 with efflux pump blockers; type: cell-based, Mycobacterium tuberculosis; settings: 4 days exposure
MTB = test: Synergy by checkerboard titration (microdilution); type: cell-based, Mycobacterium tuberculosis
Protocol: Synergistic activity with other anti-TB drugs against MSMG, MTB, MAB, and MAC. Synergy with other anti-mycobacterial drugs was determined in two drug combinations by checkerboard titration using a microdilution method. Fractional inhibitory concentration (FIC) is the MIC in combination divided by the MIC of individual drug. An FIC index (ΣFIC) of ≦0.5 indicates synergistic activity, ≧4.0 antagonistic activity and in between, additive effect. Synergistic activity was determined against MSMG, MTB, MAB and MAC. All the three CM analogues were tested in combination with INH, RIF, EMB and SM against MSMG. Similarly, all the three CM analogues were tested in combination with INH, EMB, SM and SQ109 against MTB. Only SQ641 was tested in combination with EMB, clarithromycin (CLA) and amikacin (AMK) against MAC.

[1] = test system: M. smegmatis (MSMG; MC2155); test: MIC by microdilution method in 7H9 broth; type: cell-based; settings: MSMG MC^2155, 72 hr
[2] = test system: MTB-pSMT1 luciferase reporter strain; test: Activity against slowly replicating (hypoxic) MTB; type: cell-based; settings: Mycobacterium tuberculosis
M. avium complex (MAC) = test: MIC by microdilution method in 7H9 broth; type: cell-based
[3] = test system: M. abscessus (MAB; ATCC 700869); test: MIC by microdilution method in 7H9 broth; type: cell-based; settings: Mycobacteroides abscessus, ATCC700869; MAB 700869; read-out: MIC
[4] = test system: intracellular MTB (MTBp-SMT1) in J774A.1 macrophages; test: Intracellular activity of SQ641-TPGS micelles; type: cell-based, Mycobacterium tuberculosis
M. abscessus = test: Synergy by checkerboard titration (microdilution); type: cell-based

CCCCCCCCCC(=O)O[C@@H]1[C@H](OC)[C@@H]([C@@H](O[C@H]2OC(C(=O)N[C@H]3CCC[C@@H](C)NC3=O)=C[C@H](O)[C@@H]2O)C(N)=O)O[C@H]1n1ccc(=O)[nH]c1=O [SQ641]
PAE (post-antibiotic effect) (MTB-H37Rv; 4 μg/ml, 2 hr of exposure): 55 h
PAE of SQ641 relative to INH (MTB-H37Rv; each at 4 μg/ml): over 3 times
Mean RLU at Day 7 (MTB in J774A.1 cells; SQ641 1 μg/ml + CsA10 (12 μg/ml), Day 0 RLU 811, Control Day 7 3004): 342 RLU
Mean RLU at Day 7 (MTB in J774A.1 cells; SQ641 1 μg/ml + VE10 (5 μg/ml), Day 0 RLU 425, Control Day 7 6283): 686 RLU
Mean RLU at Day 7 (MTB in J774A.1 cells; SQ641 1 μg/ml, Day 0 RLU 425, Control Day 7 6283): 3866 RLU
Mean RLU at Day 7 (MTB in J774A.1 cells; SQ641 1 μg/ml, Day 0 RLU 811, Control Day 7 3004): 2233 RLU
Mean RLU at Day 7 (MTB in J774A.1 cells; SQ641 2 μg/ml + CsA10 (12 μg/ml), Day 0 RLU 811, Control Day 7 3004): 43 RLU
Mean RLU at Day 7 (MTB in J774A.1 cells; SQ641 2 μg/ml + VE10 (5 μg/ml), Day 0 RLU 425, Control Day 7 6283): 509 RLU
Mean RLU at Day 7 (MTB in J774A.1 cells; SQ641 2 μg/ml, Day 0 RLU 425, Control Day 7 6283): 2362 RLU
Mean RLU at Day 7 (MTB in J774A.1 cells; SQ641 2 μg/ml, Day 0 RLU 811, Control Day 7 3004): 1361 RLU
Mean RLU at Day 7 (MTB in J774A.1 cells; SQ641 4 μg/ml + CsA10 (12 μg/ml), Day 0 RLU 811, Control Day 7 3004): 28 RLU
Mean RLU at Day 7 (MTB in J774A.1 cells; SQ641 4 μg/ml + VE10 (5 μg/ml), Day 0 RLU 425, Control Day 7 6283): 368 RLU
Mean RLU at Day 7 (MTB in J774A.1 cells; SQ641 4 μg/ml, Day 0 RLU 425, Control Day 7 6283): 2329 RLU
Mean RLU at Day 7 (MTB in J774A.1 cells; SQ641 4 μg/ml, Day 0 RLU 811, Control Day 7 3004): 1476 RLU
Mean RLU at Day 7 (MTB in J774A.1 cells; SQ641 8 μg/ml + CsA10 (12 μg/ml), Day 0 RLU 811, Control Day 7 3004): 15 RLU
Mean RLU at Day 7 (MTB in J774A.1 cells; SQ641 8 μg/ml + VE10 (5 μg/ml), Day 0 RLU 425, Control Day 7 6283): 44 RLU
Mean RLU at Day 7 (MTB in J774A.1 cells; SQ641 8 μg/ml, Day 0 RLU 425, Control Day 7 6283): 1392 RLU
Mean RLU at Day 7 (MTB in J774A.1 cells; SQ641 8 μg/ml, Day 0 RLU 811, Control Day 7 3004): 850 RLU
Mean RLU at Day 7 (MTB in J774A.1 cells; SQ641 16 μg/ml + CsA10 (12 μg/ml), Day 0 RLU 811, Control Day 7 3004): 14 RLU
Mean RLU at Day 7 (MTB in J774A.1 cells; SQ641 16 μg/ml + VE10 (5 μg/ml), Day 0 RLU 425, Control Day 7 6283): 18 RLU
Mean RLU at Day 7 (MTB in J774A.1 cells; SQ641 16 μg/ml, Day 0 RLU 425, Control Day 7 6283): 654 RLU
Mean RLU at Day 7 (MTB in J774A.1 cells; SQ641 16 μg/ml, Day 0 RLU 811, Control Day 7 3004): 346 RLU
Mean RLU at Day 7 (MTB in J774A.1 cells; SQ641 32 μg/ml + CsA10 (12 μg/ml), Day 0 RLU 811, Control Day 7 3004): 11 RLU
Mean RLU at Day 7 (MTB in J774A.1 cells; SQ641 32 μg/ml + VE10 (5 μg/ml), Day 0 RLU 425, Control Day 7 6283): 12 RLU
Mean RLU at Day 7 (MTB in J774A.1 cells; SQ641 32 μg/ml, Day 0 RLU 425, Control Day 7 6283): 141 RLU
Mean RLU at Day 7 (MTB in J774A.1 cells; SQ641 32 μg/ml, Day 0 RLU 811, Control Day 7 3004): 113 RLU
Synergy with other anti-mycobacterial drugs (MTB): synergistic activity with EMB, the new diamine antitubercular SQ109, and streptomycin against MTB
ΣFIC (MTB; SQ641 + EMB): 0.156
MIC [1]: 2 µg/mL (≈ 2.71 µM)
MIC ([1]; Mycolicibacterium smegmatis, MC2155|MC^2155, read-out: MIC): 2 µg/mL (≈ 2.71 µM)
MIC [2]: 0.5 µg/mL (≈ 0.678 µM)
MIC (M. avium complex (MAC); Mycobacterium avium, 336 h, MAC isolates, 2 wk, read-out: MIC (range)): 0.125 to 2 µg/mL (≈ 0.169 to 2.71 µM)
MIC (M. avium complex (MAC); Mycobacterium avium, MAC strain 100, read-out: MIC): 2 µg/mL (≈ 2.71 µM)
MIC (M. avium complex (MAC); Mycobacterium avium, MAC strain 101, read-out: MIC): 0.12 µg/mL (≈ 0.163 µM)
MIC (M. avium complex (MAC); Mycobacterium avium, MAC strain 104, read-out: MIC): 2 µg/mL (≈ 2.71 µM)
MIC (M. avium complex (MAC); Mycobacterium avium, MAC strain 109, read-out: MIC): 0.12 µg/mL (≈ 0.163 µM)
MIC (M. avium complex (MAC); Mycobacterium avium, MAC strain A5, read-out: MIC): 0.5 µg/mL (≈ 0.678 µM)
MIC (M. avium complex (MAC); Mycobacterium avium, MAC strain JSH1, read-out: MIC): 2 µg/mL (≈ 2.71 µM)
MIC (M. avium complex (MAC); Mycobacterium avium, MAC strain NIH C1-1, read-out: MIC): 0.5 µg/mL (≈ 0.678 µM)
MIC (M. avium complex (MAC); Mycobacterium avium, MAC strain NIH C1-2, read-out: MIC): 0.25 µg/mL (≈ 0.339 µM)
MIC (M. avium complex (MAC); Mycobacterium avium, MAC strain NIH C1-3, read-out: MIC): 2 µg/mL (≈ 2.71 µM)
MIC (M. avium complex (MAC); Mycobacterium avium, MAC strain NIH C1-4, read-out: MIC): 0.5 µg/mL (≈ 0.678 µM)
MIC90 (M. avium complex (MAC); Mycobacterium avium, MAC isolates, value in square brackets, read-out: MIC90): 2 µg/mL (≈ 2.71 µM)
MIC range (M. avium complex (MAC); ten MAC isolates (Table 6)): 0.125 to 2 µg/mL
MIC [3]: 0.5 µg/mL (≈ 0.678 µM)
Mean RLU at Day 7 ([4]; Expt 1, one day drug exposure, 5 μg/ml, Day 0 RLU 104, CONTROL Day 7 906): 95 RLU
Mean RLU at Day 7 ([4]; Expt 1, one day drug exposure, 10 μg/ml, Day 0 RLU 104, CONTROL Day 7 906): 64 RLU
Mean RLU at Day 7 ([4]; Expt 1, one day drug exposure, 20 μg/ml, Day 0 RLU 104, CONTROL Day 7 906): 47 RLU
Mean RLU at Day 7 ([4]; Expt 2, four days drug exposure, 4 μg/ml, Day 0 RLU 205, CONTROL Day 7 491): 62 RLU
Mean RLU at Day 7 ([4]; Expt 2, four days drug exposure, 8 μg/ml, Day 0 RLU 205, CONTROL Day 7 491): 32 RLU
Mean RLU at Day 7 ([4]; Expt 2, four days drug exposure, 16 μg/ml, Day 0 RLU 205, CONTROL Day 7 491): 17 RLU
Mean RLU at Day 7 ([4]; Expt 2, four days drug exposure, 32 μg/ml, Day 0 RLU 205, CONTROL Day 7 491): 8 RLU
MIC (M. abscessus; Mycobacteroides abscessus, drug alone): 0.5 µg/mL
ΣFIC (M. abscessus; SQ641 + RFB): 0.25
ΣFIC (M. abscessus; SQ641 + SM): 0.375
MIC Combination (M. abscessus; combination SQ641 + RFB): 0.062 µg/mL
MIC Combination (M. abscessus; combination SQ641 + SM): 0.062 µg/mL
